pIC50: −log10 of the molar value. Read-outs that look alike come from different tables or passages of the source. Numbered stars: 1 amine (or outer) side, 2 acyl side, 3 side chain; on linkers, the order of the positions; unused ones are H or OH. Bridge positions count the residues as written; N and C are the ends. Square brackets hold non-standard residues; d marks the D form. Peptide text beside a SMILES is read from it. I, II: the chains in the order shown. Actinocin(9to1) = Cc1c2oc3c(C)ccc(C(=O)[*:1])c3nc-2c(C(=O)[*:2])c(N)c1=O; NMeV = CN[C@H](C(=O)O)C(C)C; Sar = CNCC(=O)O
Columns and labels:
[1] = system: ROS in OVCAR8 ovarian cells; assay: Intracellular ROS (CellROX, flow cytometry) in OVCAR8 cells; format: cell-based; conditions: 10 uM, 2 hrs, degree much less than in resistant lines
Text: (§1) Cells were then stained with the fluorescent ROS indicator, CellROX, and subjected to flow cytometry to quantitate total intracellular ROS.

ROS in G3 lymphoma cells = assay: Intracellular ROS (CellROX, flow cytometry) in G3 cells; format: cell-based, human; conditions: 10 uM, 2 hrs
Description: as §1
The electron transport chain (ETC) is known to be a primary generator of ROS in the cell. Most of the ROS is generated by Complexes I and III of the ETC Inhibition of Complex I results in electrons piling up and leaking to react with oxygen to produce ROS.
(§2) All samples were analyzed at the same time in flow cytometry.

[2] = system: ROS in ADR-RES ovarian cells; assay: Intracellular ROS (CellROX, flow cytometry) in ADR-RES cells; format: cell-based; conditions: 10 uM, 2 hrs
Text: as §1

[3] = system: multi-drug resistant ovarian cancer cell line OVCAR-3; assay: Cell growth assay on OVCAR-3 cells; format: cell-based
Description: (§3) Compositions were tested on CHOP-resistant G3 NHL cells that had been cultivated in RPMI medium for five days. Prior to assay, the cells were counted by haemocytometer and cell concentration standardized to 625,000 cells/ml. Test drugs were solubilized in 100% DMSO and then diluted to final assay concentration with 0.1M phosphate buffered saline (PBS) and a final DMSO concentration of 0.5%. Cells were added to assay plates containing the test drugs (rifabutin+148 ng/ml, 74 ng/ml, 37 ng/ml, or 0 ng/ml doxorubicin) and allowed to incubate for 96 hours at 37° C. and 5% CO2. The metabolic dye rezasurin was added to the wells of the assay plate at a final concentration of 20 μg/ml and the plates were incubated for an additional 24 hours. The plates were then read in a BMG Polarstar plate reader at wavelength (573-605) and the data plotted as OD versus increasing dilutions (i.e. decreasing total amounts) of rifabutin derivative concentration.
(§4) In these experiments, the following cell lines were used: CHOP-resistant NHL cell line G3, CHOP-sensitive NHL cell line CRL2631, the multi-drug resistant sarcoma cell line MES-SA-Dx5; multi-drug-resistant breast cancer cell line MDA-MB-231, multi-drug resistant ovarian carcinoma cell line SK-OV3, multi-drug resistant ovarian cancer cell line NCI/ADR-RES, drug-sensitive ovarian cancer cell line OVCAR-5, and multi-drug resistant ovarian cancer cell line OVCAR-3. […]

lymphoma cell line G3 = assay: Cell growth assay (resazurin fluorescence) on CHOP-resistant G3 NHL cells; format: cell-based, human; conditions: for Magnitude of potentiation in combination with doxorubicin: G3, lymphoma B cells; for Fold increase in potency over DOX alone / pIC50 / IC50: lymphoma cell line G3; for pIC50: analog alone, read-out: IC50; for IC50: with 1 μM doxorubicin, read-out: IC50 (μM) with doxorubicin (1 μM)
Description: as §3

[4] = system: drug-sensitive ovarian cancer cell line OVCAR-5; assay: Cell growth assay on OVCAR-5 cells; format: cell-based; conditions: for Magnitude of potentiation in combination with doxorubicin: OVCAR-5, ovarian carcinoma
Description: as §3
(§5) In these experiments, the following cell lines were used: CHOP-resistant NHL cell line G3, CHOP-sensitive NHL cell line CRL2631, the multi-drug resistant sarcoma cell line MES-SA-Dx5; multi-drug-resistant breast cancer cell line MDA-MB-231, multi-drug resistant ovarian carcinoma cell line SK-OV3, multi-drug resistant ovarian cancer cell line NCI/ADR-RES, drug-sensitive ovarian cancer cell line OVCAR-5, and multi-drug resistant ovarian cancer cell line OVCAR-3.
(§6) Additional cell lines used include: ovarian cancer OVCAR-8, T lymphoblastoid leukemia MOLT-4, dexamethasone-resistant multiple myeloma MM.1R, myeloid leukemia cells HL-60, osteosarcoma cells U-2 OS, and myeloma RPMI 8226.

[5] = system: multi-drug resistant ovarian cancer cell line NCI/ADR-RES; assay: Cell growth assay on NCI/ADR-RES cells; format: cell-based; conditions: NCI/ADR-RES, ovarian carcinoma
Description: as §3, §5, §6

[6] = system: multi-drug resistant sarcoma cell line MES-SA-Dx5; assay: Cell growth assay on MES-SA-Dx5 cells; format: cell-based; conditions: for Magnitude of potentiation in combination with doxorubicin: MES-SA-Dx5, uterus sarcoma
Description: as §3, §5, §6

[7] = system: multi-drug resistant ovarian carcinoma cell line SK-OV3; assay: Cell growth assay on SK-OV3 cells; format: cell-based, human; conditions: SK-OV3, ovarian carcinoma
Description: as §3, §4

[8] = system: dexamethasone-resistant multiple myeloma MM.1R; assay: Cell growth assay on MM.1R cells; format: cell-based; conditions: for pIC50: therapeutic drug alone, read-out: IC50; for IC50: therapeutic drug with Rifabutin, read-out: IC50 (μM) with Rifabutin; for Fold increase in potency: with vs without Rifabutin
Description: as §3, §6

[9] = system: primary human fibroblasts; conditions: with and without 2 uM Dox
[10] = system: T lymphoblastoid leukemia MOLT-4; assay: Cell growth assay on MOLT-4 cells; format: cell-based
Description: as §3, §6

calcium in G3 cells = assay: Calcium mobilization (Fluo-4AM, flow cytometry); format: cell-based, human; conditions: Dox-resistant cells (G3R, 10R, WSUR), 10 uM, 2 hrs, FIG. 41B/41C
Description: MDR/P-gp activity is closely associated with calcium status in the cell, so calcium modulators were tested for effects on ROS. […] Relatively Dox-sensitive lymphoma (CRL2631, 10S, WSU) and ovarian carcinoma (OVCAR8) and more Dox-resistant lymphoma (G3R,10R, WSUR) and ovarian carcinoma (ADR) were treated with 10 uM […] for 2 hrs. […] Cells were co-stained with the cell-permeable red fluorescent ROS indicator, CellROX, and cell-permeable green fluorescent calcium indicator, Fluo-4AM, and then subjected to flow cytometry to quantitate changes in ROS and calcium levels.
as §2

[11] = system: G3 CHOP-resistant NHL cells; conditions: fourth study
Description: In a first efficacy study, 6-8 week old female SCID mice (7 mice per treatment arm) were injected subcutaneously on both flanks with 1×10^7 G3 CHOP-resistant NHL cells. Once palpable tumors (about […] size) appeared, therapies (CHOP or CHOP+rifabutin) were started. CHOP was administered at the maximum tolerated dose (cyclophosphamide, 40 mg/kg i.v.; doxorubicin, 3.3 mg/kg i.v.; vincristine, 0.5 mg/kg i.v.; and prednisone, 0.2 mg/kg orally daily for 5 d) weekly for 3 weeks. Rifabutin in an amount of 100 mg/kg was administered on the day of each CHOP treatment and 24-hours later by gavage. Mouse body weight and tumor size were monitored every two days and tumor size measured by caliper. The tumor volume formula (L*W*W)/2 was used to calculate tumor mass.
A second efficacy study was conducted where mice were treated before the appearance of palpable tumors. In that experiment, one week after transplantation of CHOP-resistant G3 cells, one group (7 mice) was treated with CHOP-only and a second group (8 mice) was treated with CHOP+rifabutin.
A third study was conducted in which mice injected with CHOP-resistant G3 cells received reduced dosages of CHOP in combination with 33 mg/kg rifabutin. CHOP+rifabutin was administered weekly beginning one week post-inoculation. Control mice were given no CHOP or rifabutin.
SCID mice were injected with CHOP-resistant G3 cells in the same manner as the first efficacy study above. Treatments began 2 weeks post-inoculation and were administered twice weekly.

COC(=O)[C@H]1[C@H]2C[C@@H]3c4[nH]c5cc(OC)ccc5c4CCN3C[C@H]2C[C@@H](OC(=O)c2cc(OC)c(OC)c(OC)c2)[C@@H]1OC [reserpine]
total intracellular ROS [1]: induced ROS | total intracellular ROS (ROS in G3 lymphoma cells): induced ROS | total intracellular ROS [2]: induced ROS

CO[C@H]1/C=C/O[C@@]2(C)Oc3c(C)c(O)c4c(c3C2O)C2=NC3(CCN(C(=O)OCC(C)C)CC3)NC2=C(NC(=O)/C(C)=C\C=C\[C@H](C)[C@H](O)[C@@H](C)[C@@H](O)[C@@H](C)[C@H](OC(C)=O)[C@@H]1C)C4=O (stereo partly drawn) [RTI-175, 11-deoxy-11-hydroxy-4-deoxy-3,4[2-spiro-[1-(isobutyloxycarbonyl)-piperidin-4-yl]]-(1H)-imidazo-(2,5-dihydro)rifamycin S]
Magnitude of potentiation in combination with doxorubicin ([3]; OVCAR-3, ovarian carcinoma): + (potentiation between 1.2 to 2.0 fold increase) | Magnitude of potentiation in combination with doxorubicin (lymphoma cell line G3): ++ (potentiation between 2.1 to 5 fold increase) | Fold increase in potency over DOX alone (lymphoma cell line G3): 2.2 fold | Magnitude of potentiation in combination with doxorubicin [4]: ++ (potentiation between 2.1 to 5 fold increase) | Magnitude of potentiation in combination with doxorubicin [5]: ++ (potentiation between 2.1 to 5 fold increase) | Magnitude of potentiation in combination with doxorubicin [6]: + (potentiation between 1.2 to 2.0 fold increase) | Magnitude of potentiation in combination with doxorubicin [7]: +++ (potentiation greater than 5 fold increase)

CC1=CC(=O)c2ccccc2C1=O [Menadione, menadione]
pIC50 ([3]; Homo sapiens, therapeutic drug alone, OVCAR-3, read-out: IC50): < 4.49 | IC50 ([3]; Homo sapiens, therapeutic drug with Rifabutin, OVCAR-3, read-out: IC50 (μM) with Rifabutin): 10.9 µM | Fold increase in potency ([3]; with vs without Rifabutin, OVCAR-3): >2.9 fold | pIC50 [8]: 5.40 | IC50 [8]: 2 µM | Fold increase in potency [8]: 2 fold

COC1C=COC2(C)Oc3c(C)c(O)c4c(c3C2N)C2=NC3(CCN(C(=O)OCC(C)C)CC3)NC2=C(NC(=O)C(C)=CC=CC(C)C(O)C(C)C(O)C(C)C(OC(C)=O)C1C)C4=O (stereo not drawn) [RTI-176, 11-deoxy-11-amino-4-deoxy-3,4[2-spiro-[1-(isobutyloxycarbonyl)-piperidin-4-yl]]-(1H)-imidazo-(2,5-dihydro)rifamycin S]
Magnitude of potentiation in combination with doxorubicin (lymphoma cell line G3): +++ (potentiation greater than 5 fold increase) | pIC50 (lymphoma cell line G3): < 4.19 | Fold increase in potency over DOX alone (lymphoma cell line G3): 5.2 fold | IC50 (lymphoma cell line G3): 0.45 µM | Magnitude of potentiation in combination with doxorubicin [4]: + (potentiation between 1.2 to 2.0 fold increase) | comparative cytotoxicity to normal cells [9]: not toxic to normal cells | Magnitude of potentiation in combination with doxorubicin [7]: +++ (potentiation greater than 5 fold increase)

Cc1c2oc3c(C)ccc(C(=O)N[C@@H]4C(=O)N[C@H](C(C)C)C(=O)N5CCC[C@H]5C(=O)N(C)CC(=O)N(C)[C@@H](C(C)C)C(=O)O[C@@H]4C)c3nc-2c(C(=O)N[C@@H]2C(=O)N[C@H](C(C)C)C(=O)N3CCC[C@H]3C(=O)N(C)CC(=O)N(C)[C@@H](C(C)C)C(=O)O[C@@H]2C)c(N)c1=O [Actinomycin D, actinomycin D] (I: T[dV]P[Sar][NMeV] / II: T[dV]P[Sar][NMeV]; ester I:1-I:C, II:1-II:C; linker I:N-II:N via Actinocin(9to1))
pIC50 ([10]; therapeutic drug alone, read-out: IC50): 7.40 | IC50 ([10]; therapeutic drug with Rifabutin, read-out: IC50 (μM) with Rifabutin): < 0.008 µM | Fold increase in potency ([10]; with vs without Rifabutin): >5 fold | pIC50 ([6]; therapeutic drug alone, MES-SA-Dx5, read-out: IC50): 7.52 | IC50 ([6]; therapeutic drug with Rifabutin, MES-SA-Dx5, read-out: IC50 (μM) with Rifabutin): 0.01 µM | Fold increase in potency ([6]; with vs without Rifabutin, MES-SA-Dx5): 3 fold

CC(C)C[C@H](NC(=O)[C@H](Cc1ccccc1)NC(=O)c1cnccn1)B(O)O [Velcade, bortezomib]
pIC50 ([4]; Homo sapiens, therapeutic drug alone, OVCAR-5, read-out: IC50): 6.77 | IC50 ([4]; Homo sapiens, therapeutic drug with Rifabutin, OVCAR-5, read-out: IC50 (μM) with Rifabutin): 0.08 µM | Fold increase in potency ([4]; with vs without Rifabutin, OVCAR-5): 2.1 fold

COc1cc2c(cc1OC)CN(CCc1ccc(NC(=O)c3cccc4c(=O)c5cccc(OC)c5[nH]c34)cc1)CC2 [elacridar]
calcium mobilization (calcium in G3 cells): induced calcium in a similar manner as RTI-79 | total intracellular ROS [1]: induced ROS | total intracellular ROS (ROS in G3 lymphoma cells): induced ROS | total intracellular ROS [2]: induced ROS

CC[C@@]1(O)C(=O)OCc2c1cc1n(c2=O)Cc2cc3ccccc3nc2-1 [Camptothecin, camptothecin]
pIC50 [8]: 5.95 | IC50 [8]: 0.3 µM | Fold increase in potency [8]: 3.8 fold

COC1C=COC2(C)Oc3c(C)c(O)c4c(c3C2=N)C2=NC3(CCN(C(=O)OCC(C)C)CC3)NC2=C(NC(=O)C(C)=CC=CC(C)C(O)C(C)C(O)C(C)C(OC(C)=O)C1C)C4=O (stereo not drawn) [RTI-81, 11-deoxy-11-imino-4-deoxy-3,4[2-spiro-[1-(isobutyloxycarbonyl)-piperidin-4-yl]]-(1H)-imidazo-(2,5-dihydro)rifamycin S]
Magnitude of potentiation in combination with doxorubicin (lymphoma cell line G3): +++ (potentiation greater than 5 fold increase) | pIC50 (lymphoma cell line G3): < 4.19 | IC50 (lymphoma cell line G3): 0.3 µM | longer life than doxorubicin only ([11]; DOX 3.3 mg/kg iv + RTI-81 10 mg/kg by gavage twice weekly): 27% | mean lifespan ([11]; doxorubicin+RTI-81 group): 42.6 | median lifespan ([11]; doxorubicin+RTI-81 group): 42 | Magnitude of potentiation in combination with doxorubicin [5]: + (potentiation between 1.2 to 2.0 fold increase) | Magnitude of potentiation in combination with doxorubicin [6]: ++ (potentiation between 2.1 to 5 fold increase) | Magnitude of potentiation in combination with doxorubicin [7]: +++ (potentiation greater than 5 fold increase)
